From paper PMC5323330 (SLAS discovery, 2016)

Key:
[1] = test system: cytosolic calcium; conditions: cited from earlier work
[2] = test system: SERCA; conditions: cited from earlier work
[3] = test system: endoplasmic reticulum [Ca2+] in HEK293 cells expressing D1ER; experiment: D1ER calcium FRET sensor, ER calcium content in live cells; type: cell-based, human; conditions: 120 min time point

Oc1cc(Cl)ccc1Oc1ccc(Cl)cc1Cl [triclosan]
cytosolic calcium, earlier report [1]: increase cytosolic calcium

Clc1ccccc1C(c1ccccc1)(c1ccccc1)n1ccnc1 [Clotrimazole, clotrimazole]
SERCA function, earlier report [2]: inhibit SERCA function

Clc1ccc(COC(Cn2ccnc2)c2ccc(Cl)cc2Cl)c(Cl)c1 (stereo not drawn) [Miconazole]
ER calcium depletion (decreased D1ER FRET) [3]: largest amount of ER calcium depletion
